# According to publication PMC10064330, “Reversible Dual-Covalent Molecular Locking of the 14-3-3/ERRγ Protein–Protein Interaction as a Molecular Glue Drug Discovery Approach” (Journal of the American Chemical Society, 2023):
# Biological target: T1, 14-3-3γ/RND3 complex (Homo sapiens, UniProt P61587+P61981)
# T1 construct: RND3 pS240, PDB 8BFC; made in house; host or cells: E. coli NiCo21 (DE3)
# Assay: FA / TD-FA selectivity screen, RND3 client peptide
# Format: binding
# Details: 100 μM compound; for effect on RND3 binding to 14-3-3γ over time / effect on 14-3-3γ/RND3 complex at short time lengths: TD-FA
# Experimental: Drugging the hub protein 14-3-3 raises the challenge of selectivity, given that 14-3-3 binds several hundred phosphoprotein partners (Figure 4a).[54] We hypothesized that the interplay of chemical reactivity, the topology, and functionality of the composite binding pocket shaped by 14-3-3 and the interaction partner drives selective stabilization of the 14-3-3/ERRγ complex.[53] To validate selectivity, molecular locks 5 and 10 were tested against a panel of nine 14-3-3 client peptides in an FA assay, and the SF100 was determined for each 14-3-3 PPI (Figure 4b and Figures S18–S20). This client panel contained a diverse representation of 14-3-3 binding proteins, differing for example in size and hydrophobicity of the +1 amino acid. Importantly, clients PKR and RND3, each containing a +1 Cys, were included in the panel.
# To further assess off-target reactivity to +1 Cys-containing peptides, fragment 1, locks 5 and 10 were also screened against PKR and RND3 in the TD-FA assay.
# Figure S20. KD and SF100 plot – selectivity screen. […]
# nine different client peptides in presence of DMSO (negative control) or 100 µM of compound 1, 5 or 10 (based on binding curves in Figure S19). Also a bar plot representation of stabilization factor (SF100) of compounds 1, 5 and 10 for each of these peptides (bottom plot).
# (1 picture or pasted object on this page, not shown here)
# Experimental Section Biophysical Assays
# 14-3-3γ protein expression (FA, TSA, MS assays)
# A pPROEX HTb expression vector encoding the human 14-3-3 protein gamma (14-3-3γ) with a N-terminal his6-tag was transformed by heat shock into NiCo21 (DE3) competent cells. Single colonies were cultured in 50 mL LB medium (100 µg/mL ampicillin). After overnight incubation at 37 °C, cultures were transferred to 2 L TB media (100 µg/mL ampicillin, 1 mM MgCl2) and incubated at 37 °C until an OD600 nm of 0.8 -1.2 was reached. Protein expression was then induced with 0.4 mM isopropyl-β-d-thiogalactoside (IPTG), and cultures were incubated overnight at 18 °C. Cells were harvested by centrifugation (8600 rpm, 20 minu tes, 4 °C) and resuspended in lysis buffer (50 mM Hepes, pH 8.0, 300 mM NaCl, 12.5 mM imidazole, 5 mM MgCl2, 2 mM βME) containing cOmplete™ EDTA-free Protease Inhibitor Cocktail tablets (1 tablet/100 ml lysate) and benzonase ( 5 µl/100 ml). After lysis using a C3 Emulsiflex-C3 homogenizer (Avestin), the cell lysate was cleared by centrifugation (20000 rpm, 30 minutes, 4 °C) and purified using Ni2+-affinity chromatography (Ni -NTA superflow cartridges, Qiagen). Typically two 5 mL columns (flow 5 mL/min) were use d for a 2 L culture in which the lysate was loaded on the column , washed with 10 CV wash buffer (50 mM Hepes, pH 8.0, 300 mM NaCl, 25 mM imidazole, 2 mM βME), and eluted in several fractions (2-4 CV) of elution buffer (50 mM Hepes, pH 8.0, 300 mM NaCl, 250 mM imidazole, 2 mM βME). Fractions containing the 14 -3-3 protein were combined and dialyzed into 25 mM HEPES pH 8.0, 100 mM NaCl, 10 mM MgCl2, 500 µM TCEP. Finally, the protein was concentrated to ∼60 mg/mL, analyzed Q-Tof LC/MS, and aliquots were flash-frozen for storage at −80 °C.
# 14-3-3σΔc C38N protein expression (Crystallography)
# A pPROEX HTb expression vector encoding the human 14-3-3 protein sigma truncated after T231 (14-3-3σΔc), mutated C38N, and containing a N-terminal his6-tag was transformed by heat shock into NiCo21 (DE3) competent cells. Single colonies were cultured in 50 mL LB medium (100 µg/mL ampicillin). After overnight incubation at 37 °C, cultures were transferred to 2 L TB media (100 µg/mL ampicillin, 1 mM MgCl2) and incubated at 37 °C until an OD600 nm of 0.8-1.2 was reached. Protein expression was then induced with 0.4 mM isopropyl-β-d-thiogalactoside (IPTG), and cultures were incubated overnight at 18 °C. Cells were harvested by centrifugation (8600 rpm, 20 minutes, 4 °C) and resuspended in lysis buffer (50 mM Hepes, pH 8.0, 300 mM NaCl, 12.5 mM […]
# T1 sequence (P61981 whole entry, other chains not shown): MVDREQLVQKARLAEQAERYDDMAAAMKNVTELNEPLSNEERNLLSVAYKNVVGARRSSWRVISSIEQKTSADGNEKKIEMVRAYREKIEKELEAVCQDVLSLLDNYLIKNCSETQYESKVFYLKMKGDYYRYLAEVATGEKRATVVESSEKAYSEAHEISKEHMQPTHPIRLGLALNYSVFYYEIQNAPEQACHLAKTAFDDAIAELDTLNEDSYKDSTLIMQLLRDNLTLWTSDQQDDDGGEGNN
Compound,effect on RND3 binding to 14-3-3γ over time,effect on 14-3-3γ/RND3 complex at short time lengths,SF100 (RND3 peptide)
"CN(C)CCSSCCN(C)C(=O)c1cccc(F)c1 [compound 1, reference compound]",remains an inhibitor,immediate destabilization,–
CN(C)CCSSCCN(C)C(=O)c1ccc(C=O)c(F)c1 [compound 5],–,immediate destabilization,–
CN(C)CCSSCCN(C)C(=O)c1cc(Br)cc(C=O)c1 [compound 10],enhancement in RND3 binding,immediate destabilization,~7.9
